Measured values reported in PubChem BioAssay AID1421 (Emory University Molecular Libraries Screening Center, 2008).
The source made the active and inactive calls. The rule behind the calls is not given here.

These compounds were tested against Prostaglandin E2 receptor EP2 subtype (Homo sapiens) (UniProt P43116) (assay: EP2 receptor modulators, dose response, cell-based, human EP2, PGE2 EC50 shift (AID 1421)). Conditions: EP2-expressing cells, PGE2 EC50 shift by compound.
Prostaglandin E2 receptor EP2 subtype (Homo sapiens), sequence (P43116 whole entry, looked up): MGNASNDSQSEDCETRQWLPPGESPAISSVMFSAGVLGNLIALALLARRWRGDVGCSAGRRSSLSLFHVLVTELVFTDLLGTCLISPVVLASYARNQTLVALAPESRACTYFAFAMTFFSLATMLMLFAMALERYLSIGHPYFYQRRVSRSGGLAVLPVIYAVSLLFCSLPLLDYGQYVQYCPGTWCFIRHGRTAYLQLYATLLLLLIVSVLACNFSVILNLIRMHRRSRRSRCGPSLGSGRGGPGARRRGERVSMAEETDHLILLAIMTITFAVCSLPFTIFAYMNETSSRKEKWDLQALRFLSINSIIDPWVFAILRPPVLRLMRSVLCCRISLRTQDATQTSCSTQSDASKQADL
With `C=CCSc1nc2sc(C)c(C)c2c(=O)n1CC=C` the outcome was “active”.
For `Clc1ccc(COn2c(-c3ccccc3)nc3ccccc32)cc1`, the outcome was “active”.
In the case of `COc1ccc2c(c1)c(=O)c(Br)c(C)n2Cc1ccccc1`, the outcome is reported as “active”.

Same assay, conditions: EP2-expressing cells, PGE2 EC50 shift by compound; measured here: PGE2 EC50 at 6.7 uM compound
`Cc1ccc(O)c(N=Cc2cc(Cc3ccccc3)cc([N+](=O)[O-])c2O)c1` was tested, and the PGE2 EC50 with compound was 1.07 nM.
`CC1=C[N+](=O)c2ccccc2[N+]1=O` gave a PGE2 EC50 with compound of 0.94 nM.
`OC1(c2ccc(Cl)cc2)CN(c2ccccc2)C2=[N+]1CCS2` (stereo unspecified) was tested, and the PGE2 EC50 with compound was 1.16 nM.
Compound `CCOC(=O)C1CCN(c2c(C(=O)c3ccccc3)cnc3ccc(CC)cc23)CC1` has a PGE2 EC50 with compound of 0.91 nM.
`C=CCSc1nc2sc(C)c(C)c2c(=O)n1CC=C` showed a PGE2 EC50 with compound of 0.83 nM.
Work on `Nc1n[nH]c2c1C1(CCCCC1)Cc1ccccc1-2` yielded a PGE2 EC50 with compound of 2.69 nM.
`Fc1ccc(-c2cc(-c3ccccc3)nc(-n3cccn3)n2)cc1` was tested, and the PGE2 EC50 with compound was 1.63 nM.
With `CCOc1ccc(Cc2n[nH]c(=S)n2Cc2ccccc2)cc1` the PGE2 EC50 with compound was 0.69 nM.
For `CCOc1ccccc1COC(=O)c1cccc(-n2cnnn2)c1`, the PGE2 EC50 with compound was 1.06 nM.
With `CCOc1ccccc1Cn1c(=O)sc2ccccc21` the PGE2 EC50 with compound was 2.65 nM.
In the case of `COc1cccc(C2=NN(C(=O)c3cccs3)C(O)(C(F)(F)F)C2)c1` (stereo unspecified), the PGE2 EC50 with compound is reported as 1.44 nM.
`CCOC(=O)C1=C(C)N(C)C(C)=C(C(=O)OCC)C1c1ccccc1` showed a PGE2 EC50 with compound of 0.97 nM.
`Clc1ccc(COn2c(-c3ccccc3)nc3ccccc32)cc1` was tested, and the PGE2 EC50 with compound was 2.65 nM.
For `C=C1CCC2C(CC2(C)C)C(=C)CC/C1=N/O` (stereo unspecified), the PGE2 EC50 with compound was 1.61 nM.
`O=c1[nH]c(SCc2cccc(Cl)c2)nc2c1CCCC2` showed a PGE2 EC50 with compound of 0.77 nM.
`O=C(c1ccc(Br)o1)N(Cc1ccccc1)Cc1ccccc1` showed a PGE2 EC50 with compound of 0.77 nM.
`COc1cc2c(cc1OC)CN(c1ccc(-c3ccccc3OC)nn1)CC2` showed a PGE2 EC50 with compound of 1.64 nM.
`COC(=O)c1c(NC(=S)NN2CCOCC2)sc2c1CCCC2` showed a PGE2 EC50 with compound of 0.9 nM.
Compound `Cc1cccc(OCCCC(=O)N2CCCc3ccccc32)c1C` has a PGE2 EC50 with compound of 0.71 nM.
`Cc1ccc(S(=O)(=O)N2c3ccccc3OCC2C(C)(C)C)cc1` (stereo unspecified) was tested, and the PGE2 EC50 with compound was 2.69 nM.
In the case of `Cc1ccc(C(C)C)c(OCc2ccc(-c3nnco3)cc2)c1`, the PGE2 EC50 with compound is reported as 2.51 nM.
`CCOC(=O)c1c(C2CC2)csc1NC(=O)CSCc1c(C)noc1C` showed a PGE2 EC50 with compound of 1.25 nM.
With `O=C1CCCc2ccccc2N1Cc1cccc(Cl)c1` the PGE2 EC50 with compound was 2.62 nM.
For `Cc1cccc(Oc2nc(-c3ccccc3)cc(C)c2S(C)(=O)=O)c1C`, the PGE2 EC50 with compound was 2.56 nM.
With `Cc1cc(C)c(N=C2CCCN2Cc2ccccc2)c(C#N)c1` the PGE2 EC50 with compound was 1.39 nM.
Work on `O=C(Cc1ccc(F)cc1)Nc1ccccc1Sc1ccccc1` yielded a PGE2 EC50 with compound of 0.7 nM.
In the case of `CCOc1ccc(NC(=O)CSc2ncnc3c2sc2ccccc23)cc1`, the PGE2 EC50 with compound is reported as 2.67 nM.
With `CC1CCCN(C(=O)CSc2cnc3ccccc3n2)C1` (stereo unspecified) the PGE2 EC50 with compound was 1.26 nM.
`COc1ccc2c(c1)c(=O)c(Br)c(C)n2Cc1ccccc1` gave a PGE2 EC50 with compound of 0.83 nM.
Compound `Brc1ccccc1Cn1c(-c2cscn2)nc2ccccc21` has a PGE2 EC50 with compound of 0.94 nM.
For `CCOC(=O)C1=C(N)OC2=C(C(=O)CC(C)(C)C2)C1c1ccc(CC)s1` (stereo unspecified), the PGE2 EC50 with compound was 0.96 nM.
`C=CCSc1nc2ccsc2c(=O)n1-c1ccccc1` showed a PGE2 EC50 with compound of 2.54 nM.
`Cn1c(=O)c2c(ncn2CCSS(=O)(=O)O)n(C)c1=O` gave a PGE2 EC50 with compound of 0.97 nM.
With `Cc1ccc(Nc2cc(C)nc3c(C)ccc([N+](=O)[O-])c23)cc1` the PGE2 EC50 with compound was 0.73 nM.
Compound `CC1CCN(c2nc3c(c(=O)[nH]c(=O)n3C)n2CC(C)CSc2nnnn2-c2ccccc2)CC1` (stereo unspecified) has a PGE2 EC50 with compound of 1.27 nM.
`CCOC(=O)COc1cc(Br)c(/C=N/Nc2ccccc2)cc1OC` was tested, and the PGE2 EC50 with compound was 2.69 nM.
`Cc1ccccc1CSCC(=O)Nc1ccccc1-c1ccccc1` gave a PGE2 EC50 with compound of 1.02 nM.
For `CC[C@@H]1Cc2cc(O)ccc2C2=C1c1ccc(O)cc1C[C@H]2CC`, the PGE2 EC50 with compound was 0.3 nM.
`CC1(c2ccccc2)CC(C)(C)N(C(=O)C2CCCO2)c2ccccc21` (stereo unspecified) was tested, and the PGE2 EC50 with compound was 0.9 nM.
`Cc1ccccc1NC(=O)/C(=C/c1ccccc1)c1ccccc1` was tested, and the PGE2 EC50 with compound was 1.23 nM.
`O=C(CSc1ncnc2c1oc1ccccc12)Nc1ccccc1C(F)(F)F` gave a PGE2 EC50 with compound of 1.17 nM.
`CN(C)c1nc(N2CCOCC2)nc(N(c2ccccc2)c2ccccc2)n1` was tested, and the PGE2 EC50 with compound was 0.61 nM.
`CCOc1cc(/C=N/NC(N)=O)ccc1OC(=O)c1ccc(C)cc1` was tested, and the PGE2 EC50 with compound was 1.52 nM.
